From patent US10662156B2, “Guanidine derivative and medical use thereof” (Toray Industries, Inc., priority 2016, dated 2020)

Molecular target: recombinant GST fusion MALT1 (human MALT1) (Homo sapiens (Human), UniProt Q9UDY8)
Assay: Evaluation of inhibition of protease activity of MALT1 (cleavage of fluorescent peptide substrate Ac-LRSR-AMC)
Format: biochemical
Settings: substrate Ac-LRSR-AMC 20 μmol/L, 30° C. for 80 minutes
Method in brief: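 GST-tagged full-length human MALT1 from E. coli ([…]) was preincubated with compound 30 min at room temperature. Buffer: MES, 150 mM NaCl, 10% sucrose, 0.1% CHAPS, 10 mM DTT, 1 mol/L ammonium citrate. Ac-LRSR-AMC (20 μM final) was then cleaved 80 min at 30 °C; AMC fluorescence (Ex 380/Em 460) gain gave % inhibition versus no-enzyme and DMSO controls.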

recombinant GST fusion MALT1 (human MALT1), sequence (Q9UDY8 whole entry, the tested form may be a part): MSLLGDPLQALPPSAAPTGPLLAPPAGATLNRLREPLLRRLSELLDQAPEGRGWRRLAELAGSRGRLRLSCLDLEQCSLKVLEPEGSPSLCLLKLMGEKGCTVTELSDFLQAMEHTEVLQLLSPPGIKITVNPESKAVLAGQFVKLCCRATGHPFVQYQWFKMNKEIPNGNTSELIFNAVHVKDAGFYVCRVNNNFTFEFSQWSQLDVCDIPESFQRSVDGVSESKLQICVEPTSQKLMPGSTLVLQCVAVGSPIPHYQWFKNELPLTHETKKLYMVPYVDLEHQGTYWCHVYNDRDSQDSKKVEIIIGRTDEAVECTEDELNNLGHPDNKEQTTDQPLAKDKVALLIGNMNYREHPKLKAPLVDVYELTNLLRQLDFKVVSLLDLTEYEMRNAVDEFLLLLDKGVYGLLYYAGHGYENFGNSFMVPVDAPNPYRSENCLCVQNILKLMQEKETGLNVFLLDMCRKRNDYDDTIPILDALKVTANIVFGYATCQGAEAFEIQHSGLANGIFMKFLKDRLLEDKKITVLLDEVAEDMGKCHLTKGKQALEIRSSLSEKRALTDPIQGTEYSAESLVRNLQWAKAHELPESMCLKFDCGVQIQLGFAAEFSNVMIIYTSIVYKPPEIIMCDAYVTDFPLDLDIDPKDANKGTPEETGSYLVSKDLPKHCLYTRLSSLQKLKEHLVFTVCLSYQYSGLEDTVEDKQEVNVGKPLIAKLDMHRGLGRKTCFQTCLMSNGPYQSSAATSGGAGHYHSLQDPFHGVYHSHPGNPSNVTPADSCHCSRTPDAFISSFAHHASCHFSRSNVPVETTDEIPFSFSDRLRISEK

IC50: 270 nM
SMILES: Cl.N/C(=N\S(=O)(=O)c1ccccc1)NCc1cnc(-c2ccc(Cl)cc2)c(-c2ccc(Cl)cc2)c1 [Compound of Example 2, N-(amino(((5,6-bis(4-chlorophenyl)pyridin-3-yl)methyl)amino)methylene)benzenesulfonamide Hydrochloride]
